The record followed here is PubChem BioAssay (NCI).

Each structure is given as a SMILES string.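 Tested at 5 concentrations; 48 h exposure; 96-well plates; endpoints linearly interpolated, else capped at highest concentration. TGI is the concentration that stops growth completely.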 Bounds are passed on as bounds.

Test systems include HOP-62 NSCLC; UO-31 renal; SK-MEL-28 melanoma; T-47D breast; NCI-H460 lung; TK-10 renal; MCF7 breast; CCRF-CEM leukemia; UACC-62 melanoma; MALME-3M melanoma; HCC-2998 colon; KM12 colon; SK-MEL-5 melanoma; HS 578T breast; M14 melanoma; UACC-257 melanoma.
Common to all, as to test: NCI tumour cell line growth inhibition, 48 h

Turning to `O=c1[nH]nc(Cc2ccc(Cl)cc2)n1/N=C\CC/C=N\n1c(Cc2ccc(Cl)cc2)n[nH]c1=O`, the TGI in the test on HOP-62 NSCLC was 27.5 µM; in the test with UO-31 renal, over 100 µM; in the test on SK-MEL-28 melanoma, 96.9 µM; in the test with T-47D breast, over 100 µM; with NCI-H460 lung, over 100 µM; in the test on TK-10 renal it was over 100 µM. Besides, the TGI in the test with MCF7 breast is over 100 µM; in the test on CCRF-CEM leukemia, over 88.9 µM; in the test with UACC-62 melanoma it was 45.7 µM; in the test with MALME-3M melanoma, over 84.7 µM; in the test with HCC-2998 colon it was over 100 µM; with KM12 colon, over 100 µM. Besides, the TGI was over 100 µM in the test with SK-MEL-5 melanoma, 36.5 µM with HS 578T breast, over 100 µM in the test with M14 melanoma and over 100 µM in the test with UACC-257 melanoma.
As to `CC(C)n1c2c([n+](C)c1/C=C/c1ccccc1)C(=O)c1ccccc1C2=O`, the TGI with HOP-62 NSCLC turned out to be 1.61 µM; in the test with UO-31 renal it was 10.1 µM; in the test with SK-MEL-28 melanoma, 1.6 µM; with T-47D breast, 0.61 µM; with NCI-H460 lung, 2.43 µM; in the test on TK-10 renal it was 2.39 µM. Also, the TGI in the test with MCF7 breast turned out to be 0.214 µM; in the test with CCRF-CEM leukemia, 10.9 µM; with UACC-62 melanoma, 0.644 µM; with MALME-3M melanoma, 0.248 µM; in the test on HCC-2998 colon, 2.06 µM; in the test on KM12 colon it was 0.975 µM. Moreover, the TGI was determined as 0.252 µM in the test on SK-MEL-5 melanoma, 7.8 µM with HS 578T breast, 1.08 µM with M14 melanoma and 0.123 µM with UACC-257 melanoma.
Regarding `NCCCN1CCN(CC(=O)O)CCN(CCCN)CCN(CC(=O)O)CC1`, the TGI in the test with HOP-62 NSCLC, with UO-31 renal, with SK-MEL-28 melanoma, in the test on T-47D breast, with NCI-H460 lung and in the test with TK-10 renal was over 100 µM throughout. Also, the TGI with MCF7 breast, in the test with CCRF-CEM leukemia, in the test on UACC-62 melanoma, in the test with MALME-3M melanoma, in the test with HCC-2998 colon and in the test on KM12 colon was over 100 µM each time. The TGI in the test on SK-MEL-5 melanoma was 21.3 µM; in the test on HS 578T breast, over 100 µM; in the test on M14 melanoma, over 100 µM; in the test with UACC-257 melanoma, over 100 µM.
For the compound `CCOC(=O)CCC(NC(=O)c1ccc(OCc2nc3ccccc3n3cccc23)cc1)C(=O)OCC` (stereo not drawn), the TGI in the test on HOP-62 NSCLC, with UO-31 renal, in the test on SK-MEL-28 melanoma, with T-47D breast, in the test on NCI-H460 lung and in the test on TK-10 renal was over 100 µM in each case. In addition, the TGI with MCF7 breast, in the test with CCRF-CEM leukemia, in the test on UACC-62 melanoma, in the test with MALME-3M melanoma, with HCC-2998 colon and in the test on KM12 colon was over 100 µM in each case. For the same compound, the TGI in the test with SK-MEL-5 melanoma, in the test with HS 578T breast, in the test with M14 melanoma and in the test with UACC-257 melanoma was over 100 µM throughout.
Take `CCCCn1c2c(n(CCCC)c1=S)-c1c(n(CCCC)c(=S)n1CCCC)SSSS2`: the TGI was 36.6 µM in the test with HOP-62 NSCLC; 2.64 µM in the test with UO-31 renal; 31.6 µM with SK-MEL-28 melanoma; 1.82 µM in the test with T-47D breast; over 93.6 µM in the test with NCI-H460 lung; 22.9 µM in the test on TK-10 renal. The TGI in the test with MCF7 breast is over 100 µM; in the test with CCRF-CEM leukemia, over 100 µM; in the test on UACC-62 melanoma it was 4.87 µM; with MALME-3M melanoma, 2.03 µM; in the test on HCC-2998 colon, 26.7 µM; in the test with KM12 colon it was over 33.1 µM. Besides, the TGI in the test with SK-MEL-5 melanoma amounted to 8.95 µM; in the test on HS 578T breast, 46.3 µM; with M14 melanoma, 17.5 µM; in the test with UACC-257 melanoma, 9.13 µM.
With `Oc1c(C2=N[C@H]3CCCC[C@@H]3N2)ccc2ccccc12`, the TGI in the test with HOP-62 NSCLC was over 80.6 µM; in the test on UO-31 renal, over 100 µM; in the test with SK-MEL-28 melanoma it was over 100 µM; in the test on T-47D breast it was over 100 µM; with NCI-H460 lung it was over 100 µM; with TK-10 renal it was over 100 µM. Moreover, the TGI in the test with MCF7 breast, in the test on CCRF-CEM leukemia, in the test on UACC-62 melanoma, with MALME-3M melanoma, with HCC-2998 colon and in the test on KM12 colon was over 100 µM in each case. The TGI in the test with SK-MEL-5 melanoma, with HS 578T breast, in the test with M14 melanoma and in the test with UACC-257 melanoma was over 100 µM throughout.
For the compound `O=C(NC1=NC2C=CC([N+](=O)[O-])=CC2S1)C(=O)Nn1c(=S)[nH]c2ccccc2c1=O` (stereo not drawn), the TGI in the test on HOP-62 NSCLC, in the test on UO-31 renal, with SK-MEL-28 melanoma, in the test on T-47D breast, in the test on NCI-H460 lung and with TK-10 renal was over 100 µM in each case. Moreover, the TGI with MCF7 breast, in the test with CCRF-CEM leukemia, with UACC-62 melanoma, with MALME-3M melanoma, in the test on HCC-2998 colon and in the test on KM12 colon was over 100 µM throughout. Besides, the TGI in the test with SK-MEL-5 melanoma, in the test on HS 578T breast, in the test on M14 melanoma and in the test on UACC-257 melanoma was over 100 µM each time.
Take `COc1cc2c(c3c1c(=O)c1ccccc1n3C)C=CC1(CCCCC1)O2`: the TGI is over 9.54 µM with HOP-62 NSCLC; 0.255 µM with UO-31 renal; over 10 µM in the test on SK-MEL-28 melanoma; over 10 µM in the test with T-47D breast; over 10 µM in the test on NCI-H460 lung; over 10 µM in the test on TK-10 renal. The TGI in the test on MCF7 breast was over 9.55 µM; with CCRF-CEM leukemia it was over 10 µM; in the test on UACC-62 melanoma it was 9.86 µM; in the test with MALME-3M melanoma, over 10 µM; with HCC-2998 colon it was over 10 µM; with KM12 colon it was over 2.21 µM. The TGI in the test on SK-MEL-5 melanoma is over 6.15 µM; in the test with HS 578T breast it was 7.49 µM; in the test with M14 melanoma, 7.92 µM; in the test on UACC-257 melanoma, over 10 µM.
